{
  "source": "patent US20240000950A1",
  "about": "“THERAPEUTIC CURE-PRO COMPOUNDS FOR TARGETED DEGRADATION OF BET DOMAIN PROTEINS, AND METHODS OF MAKING AND USING THEM” (CORNELL UNIVERSITY, priority 2020, published 2024)",
  "biological_target": "BRD4 (Homo sapiens, UniProt O60885)",
  "assay": "Summary of E3 ligase directed degradation of BRD4, estimated from Western Blot or WES (Tables 1-6)",
  "assay_type": "cell-based",
  "parameters": "endogenous in cells; host or cells: HeLa, MCF7 or HCT116",
  "conditions": "for Degradation of BRD4, combination with VHL ligand [drawing 442]: aromatic 1,2-diol-containing VHL ligand drawn as drawing 442 (by the text apparently 8305); for Degradation of BRD4, combination with CRBN ligand [drawing 421] / Degradation of BRD4, combination with CRBN ligand [drawing 422] / Degradation of BRD4, combination with CRBN ligand [drawing 397]: Table 1; for Degradation of BRD4, combination with CRBN ligand [drawing 421]: CRBN ligand drawn as drawing 421 (by the text apparently 8047); for Degradation of BRD4, combination with CRBN ligand [drawing 422]: CRBN ligand drawn as drawing 422 (by the text apparently 8066); for Degradation of BRD4, combination with CRBN ligand [drawing 397]: aromatic 1,2-diol- or hindered cis-1,2-diol-containing CRBN ligand drawn as drawing 397 (by the text apparently 8046); for Degradation of BRD4, combination with MDM2 ligand [drawing 431]: Table 2, aromatic 1,2-diol-containing MDM2 ligand drawn as drawing 431 (by the text apparently 8314); for Degradation of BRD4, combination with CRBN ligand [drawing 457]: Table 4, aryl-boronic acid-containing CRBN ligand drawn as drawing 457 (by the text apparently 8048)",
  "protocol": "HeLa, MCF7, or HCT116 cells (2.5-3×10^6) were treated for 24 hours with the indicated compounds solubilized in DMSO. The cells were washed in ice-cold PBS and were then lysed in RIPA lysis buffer (150 mM NaCl, 5 mM EDTA, 1% NP-40, 0.5% sodium deoxycholate, 0.1% SDS, 50 mM Tris, pH 8.0) with Roche protease inhibitor complete cocktail and phosphatase inhibitors (10 mM sodium fluoride, 10 mM sodium pyrophosphate, 1 mM sodium orthovanadate and 20 mM β-glycerophosphate). The total protein concentrations were determined by Bradford Protein Assay and 10-20 μg of protein was loaded onto 4-15% Tris-Glycine gradient gels (Biorad). After standard gel electrophoresis, the separated proteins were transferred to PVDF membrane by wet transfer. The immunoblots were then blocked for 1 hour in 5% skim milk in TBST or 5% BSA in TBST, according to manufacturer's instructions, before an overnight incubation at 4° C. with indicated antibodies and membranes. Membranes were then incubated with the appropriate horseradish peroxidase-conjugated secondary antibodies (1:5,000 dilution) for 1 h at room temperature and the bands were visualized using the Clarity Max Western ECL Substrate (Biorad) and the ChemiDoc Imaging System (Biorad). Signal was detected with ECL Western Blotting Substrate (Pierce) and X-ray film processed with a Konica SRX-101 X-ray film processor or captured by Bio-Rad's Chemidoc Imaging system.\nWES Simple analysis was performed on WES system (ProteinSimple-Biotechne) according to the manufacturer's instructions. Total protein concentrations of cell lysates were determined by the Pierce BCA kit (Thermo Fisher). 3 μL of 0.3 μg/uL of the protein lysate was loaded onto a 12- to 230-kDa WES assay plate (ProteinSimple) where 300 nL sample was withdrawn through a capillary, subjected to electrophoretic separation of proteins by size, and followed by the simultaneous, HRP-based detection of proteins using the Anti-Rabbit Detection Module (Proteinsimple: #DM-001). The electropherograms were checked then the automatic peak detection was manually corrected if it was required.\nA black check mark indicates efficacy of 30% to 70% or higher protein degradation.",
  "data": [
    {"smiles": "COc1ccc2c(c1)C(c1ccc(Cl)cc1)=N[C@@H](CC(=O)NCCNC(=O)c1cccc(B(O)O)c1)c1nnc(C)n1-2", "note": "[BRD-E02]", "values": [
      {"measurement": "Degradation of BRD4, combination with VHL ligand [drawing 442]", "setting": "Table 3", "result": "✓ (A black check mark indicates efficacy of 30% to 70% or higher protein degradation)"}
    ]},
    {"smiles": "COc1ccc2c(c1)C(c1ccc(Cl)cc1)=N[C@@H](CC(=O)NCCCNC(=O)c1cccc(B(O)O)c1)c1nnc(C)n1-2", "note": "[BRD-E04]", "values": [
      {"measurement": "Degradation of BRD4, combination with CRBN ligand [drawing 421]", "result": "✓ (A black check mark indicates efficacy of 30% to 70% or higher protein degradation)"},
      {"measurement": "Degradation of BRD4, combination with CRBN ligand [drawing 422]", "result": "✓ (A black check mark indicates efficacy of 30% to 70% or higher protein degradation)"},
      {"measurement": "Degradation of BRD4, combination with CRBN ligand [drawing 397]", "result": "✓ (A black check mark indicates efficacy of 30% to 70% or higher protein degradation)"}
    ]},
    {"smiles": "COc1ccc2c(c1)C(c1ccc(Cl)cc1)=N[C@@H](CC(=O)NCCCCNC(=O)c1ccc(B(O)O)cc1)c1nnc(C)n1-2", "note": "[BRD-E05]", "values": [
      {"measurement": "Degradation of BRD4, combination with CRBN ligand [drawing 421]", "result": "✓ (A black check mark indicates efficacy of 30% to 70% or higher protein degradation)"},
      {"measurement": "Degradation of BRD4, combination with CRBN ligand [drawing 422]", "result": "✓ (A black check mark indicates efficacy of 30% to 70% or higher protein degradation)"}
    ]},
    {"smiles": "COc1ccc2c(c1)C(c1ccc(Cl)cc1)=N[C@@H](CC(=O)NCCCCCNC(=O)c1ccc(B(O)O)cc1)c1nnc(C)n1-2", "note": "[BRD-E07]", "values": [
      {"measurement": "Degradation of BRD4, combination with CRBN ligand [drawing 422]", "result": "✓ (A black check mark indicates efficacy of 30% to 70% or higher protein degradation)"}
    ]},
    {"smiles": "COc1ccc2c(c1)C(c1ccc(Cl)cc1)=N[C@@H](CC(=O)NCc1ccc(B(O)O)cc1)c1nnc(C)n1-2", "note": "[BRD-E09, (4-((2-((4S)-6-(4-chlorophenyl)-8-methoxy-1-methyl-4H-benzo[f][1,2,4]triazolo[4,3-a][1,4]diazepin-4-yl)acetamido)methyl)phenyl)boronic acid]", "values": [
      {"measurement": "Degradation of BRD4, combination with CRBN ligand [drawing 421]", "result": "✓ (A black check mark indicates efficacy of 30% to 70% or higher protein degradation)"},
      {"measurement": "Degradation of BRD4, combination with VHL ligand [drawing 442]", "setting": "Table 3", "result": "✓ (A black check mark indicates efficacy of 30% to 70% or higher protein degradation)"}
    ]},
    {"smiles": "COc1ccc2c(c1)C(c1ccc(Cl)cc1)=N[C@@H](CC(=O)NCc1cccc(B(O)O)c1)c1nnc(C)n1-2", "note": "[BRD-E10]", "values": [
      {"measurement": "Degradation of BRD4, combination with CRBN ligand [drawing 421]", "result": "✓ (A black check mark indicates efficacy of 30% to 70% or higher protein degradation)"},
      {"measurement": "Degradation of BRD4, combination with CRBN ligand [drawing 397]", "result": "✓ (A black check mark indicates efficacy of 30% to 70% or higher protein degradation)"},
      {"measurement": "Degradation of BRD4, combination with VHL ligand [drawing 441]", "setting": "Table 3, aromatic 1,2-diol-containing VHL ligand drawn as drawing 441 (by the text apparently 8304)", "result": "✓ (A black check mark indicates efficacy of 30% to 70% or higher protein degradation)"}
    ]},
    {"smiles": "COc1ccc2c(c1)C(c1ccc(Cl)cc1)=N[C@@H](CC(=O)NCCc1ccc(B(O)O)cc1)c1nnc(C)n1-2", "note": "[BRD-E14, (4-(2-(2-((4S)-6-(4-chlorophenyl)-8-methoxy-1-methyl-4H-benzo[f][1,2,4]triazolo[4,3-a][1,4]diazepin-4-yl)acetamido)ethyl)phenyl)boronic acid]", "values": [
      {"measurement": "Degradation of BRD4, combination with CRBN ligand [drawing 421]", "result": "✓ (A black check mark indicates efficacy of 30% to 70% or higher protein degradation)"},
      {"measurement": "Degradation of BRD4, combination with MDM2 ligand [drawing 431]", "result": "✓ (A black check mark indicates efficacy of 30% to 70% or higher protein degradation)"},
      {"measurement": "Degradation of BRD4, combination with VHL ligand [drawing 442]", "setting": "Table 3", "result": "✓ (A black check mark indicates efficacy of 30% to 70% or higher protein degradation)"}
    ]},
    {"smiles": "COc1ccc2c(c1)C(c1ccc(Cl)cc1)=N[C@@H](CC(=O)NCCNC(=O)Cc1ccc(B(O)O)cc1)c1nnc(C)n1-2", "note": "[BRD-E27, (4-(2-((2-(2-((4S)-6-(4-chlorophenyl)-8-methoxy-1-methyl-4H-benzo[f][1,2,4]triazolo[4,3-a][1,4]diazepin-4-yl)acetamido)ethyl)amino)-2-oxoethyl)phenyl)boronic acid]", "values": [
      {"measurement": "Degradation of BRD4, combination with CRBN ligand [drawing 421]", "result": "✓ (A black check mark indicates efficacy of 30% to 70% or higher protein degradation)"}
    ]},
    {"smiles": "COc1ccc2c(c1)C(c1ccc(Cl)cc1)=N[C@@H](CC(=O)NCCNC(=O)Cc1cccc(B(O)O)c1)c1nnc(C)n1-2", "note": "[BRD-E38]", "values": [
      {"measurement": "Degradation of BRD4, combination with CRBN ligand [drawing 421]", "result": "✓ (A black check mark indicates efficacy of 30% to 70% or higher protein degradation)"}
    ]},
    {"smiles": "CCNC(=O)C[C@@H]1N=C(c2ccc(Cl)cc2)c2cc(OCCOCCNC(=O)c3ccc(B(O)O)cc3)ccc2-n2c(C)nnc21", "note": "[BRD-E39]", "values": [
      {"measurement": "Degradation of BRD4, combination with CRBN ligand [drawing 397]", "result": "✓ (A black check mark indicates efficacy of 30% to 70% or higher protein degradation)"}
    ]},
    {"smiles": "CCNC(=O)C[C@@H]1N=C(c2ccc(Cl)cc2)c2cc(OCCOCCOCCNC(=O)c3cccc(B(O)O)c3)ccc2-n2c(C)nnc21", "note": "[BRD-E42]", "values": [
      {"measurement": "Degradation of BRD4, combination with CRBN ligand [drawing 421]", "result": "✓ (A black check mark indicates efficacy of 30% to 70% or higher protein degradation)"}
    ]},
    {"smiles": "CCNC(=O)C[C@@H]1N=C(c2ccc(Cl)cc2)c2cc(OCCOCCOCCOCCNC(=O)c3ccc(B(O)O)cc3)ccc2-n2c(C)nnc21", "note": "[BRD-E43]", "values": [
      {"measurement": "Degradation of BRD4, combination with CRBN ligand [drawing 421]", "result": "✓ (A black check mark indicates efficacy of 30% to 70% or higher protein degradation)"},
      {"measurement": "Degradation of BRD4, combination with CRBN ligand [drawing 422]", "result": "✓ (A black check mark indicates efficacy of 30% to 70% or higher protein degradation)"}
    ]},
    {"smiles": "COc1ccc2c(c1)C(c1ccc(Cl)cc1)=N[C@@H](CC(=O)NCCOCCOCCNC(=O)c1ccc(B(O)O)cc1)c1nnc(C)n1-2", "note": "[BRD-E45]", "values": [
      {"measurement": "Degradation of BRD4, combination with CRBN ligand [drawing 422]", "result": "✓ (A black check mark indicates efficacy of 30% to 70% or higher protein degradation)"},
      {"measurement": "Degradation of BRD4, combination with VHL ligand [drawing 442]", "setting": "Table 3", "result": "✓ (A black check mark indicates efficacy of 30% to 70% or higher protein degradation)"}
    ]},
    {"smiles": "CCNC(=O)C[C@@H]1N=C(c2ccc(SCc3ccc(B(O)O)cc3)cc2)c2cc(OC)ccc2-n2c(C)nnc21", "note": "[BRD-E54]", "values": [
      {"measurement": "Degradation of BRD4, combination with VHL ligand [drawing 442]", "setting": "Table 3", "result": "✓ (A black check mark indicates efficacy of 30% to 70% or higher protein degradation)"}
    ]},
    {"smiles": "COc1ccc2c(c1)C(c1ccc(Cl)cc1)=N[C@@H](CC(=O)Nc1ccc(B(O)O)cc1)c1nnc(C)n1-2", "note": "[BRD-E74, (4-(2-((4S)-6-(4-chlorophenyl)-8-methoxy-1-methyl-4H-benzo[f][1,2,4]triazolo[4,3-a][1,4]diazepin-4-yl)acetamido)phenyl)boronic acid]", "values": [
      {"measurement": "Degradation of BRD4, combination with CRBN ligand [drawing 397]", "result": "✓ (A black check mark indicates efficacy of 30% to 70% or higher protein degradation)"},
      {"measurement": "Degradation of BRD4, combination with MDM2 ligand [drawing 431]", "result": "✓ (A black check mark indicates efficacy of 30% to 70% or higher protein degradation)"}
    ]},
    {"smiles": "COc1ccc2c(c1)C(c1ccc(Cl)cc1)=N[C@@H](CC(=O)NCCNC(=O)c1ccc(O)c(O)c1)c1nnc(C)n1-2", "note": "[BRD-N01]", "values": [
      {"measurement": "Degradation of BRD4, combination with CRBN ligand [drawing 457]", "result": "✓ (A black check mark indicates efficacy of 30% to 70% or higher protein degradation)"}
    ]},
    {"smiles": "COc1ccc2c(c1)C(c1ccc(Cl)cc1)=N[C@@H](CC(=O)NCCCCNC(=O)c1ccc(O)c(O)c1)c1nnc(C)n1-2", "note": "[BRD-N05]", "values": [
      {"measurement": "Degradation of BRD4, combination with CRBN ligand [drawing 457]", "result": "✓ (A black check mark indicates efficacy of 30% to 70% or higher protein degradation)"}
    ]},
    {"smiles": "COc1ccc2c(c1)C(c1ccc(Cl)cc1)=N[C@@H](CC(=O)NCCCCNC(=O)c1cccc(O)c1O)c1nnc(C)n1-2", "note": "[BRD-N06]", "values": [
      {"measurement": "Degradation of BRD4, combination with CRBN ligand [drawing 457]", "result": "✓ (A black check mark indicates efficacy of 30% to 70% or higher protein degradation)"}
    ]},
    {"smiles": "CCNC(=O)C[C@@H]1N=C(c2ccc(Cl)cc2)c2cc(OCCCCC(=O)Nc3ccc(O)c(O)c3)ccc2-n2c(C)nnc21", "note": "[BRD-N22, 5-(((4S)-6-(4-chlorophenyl)-4-(2-(ethylamino)-2-oxoethyl)-1-methyl-4H-benzo[f][1,2,4]triazolo[4,3-a][1,4]diazepin-8-yl)oxy)-N-(3,4-dihydroxyphenyl)pentanamide]", "values": [
      {"measurement": "Degradation of BRD4, combination with CRBN ligand [drawing 457]", "result": "✓ (A black check mark indicates efficacy of 30% to 70% or higher protein degradation)"}
    ]}
  ]
}
